Laboratory results: US20250263436A1, “BROAD-SPECTRUM ANTIVIRAL DRUG FOR ENTEROVIRUS, AND APPLICATION” (WUHAN INSTITUTE OF VIROLOGY, CHINESE ACADEMY OF SCIENCES, priority 2020, published 2025)
Where “and” joins values, the source holds several entries; their conditions need not be identical. Equal entries are not always repeated.

Tested on: 293T cells
Assay: Toxicity assay in 293T cells (CCK-8)
Assay type: cell-based
Conditions: 24 h
Protocol: (1) Different cells were plated in a 96-well plate at 100 μL per well.
(2) When the cells grew to a confluence of 70%-80%, the DMEM medium containing 10% serum was replaced with a DMEM medium containing 2% serum, and a certain concentration gradient of polypeptide RQ was added, so that the final concentrations of the polypeptide in the wells were 0.073242 μM, 0.146484 μM, 0.292969 μM, 0.585938 μM, 1.171875 μM, 2.34375 μM, 4.6875 μM, 9.375 μM, 18.75 μM, 37.5 μM, 75 μM, 150 μM, and 300 μM, respectively.
(3) The samples were collected 24 h after the addition of the polypeptide, and then 10 μL of live cell detection reagent CCK-8 was added to each well and mixed well.
(4) The plate was placed at 37° C. for 2 h.
(5) The absorbance value at OD450 was detected by a microplate reader.

## CC[C@H](C)[C@H](NC(=O)[C@H](C)NC(=O)[C@H](CO)NC(=O)[C@H](CCCNC(=N)N)NC(=O)[C@H](CC(N)=O)NC(=O)[C@H](CC(N)=O)NC(=O)[C@H](Cc1ccc(O)cc1)NC(=O)[C@H](CCC(=O)O)NC(=O)[C@H](CCCNC(=N)N)NC(=O)CNC(=O)[C@H](CO)NC(=O)CNC(=O)[C@H](CCCNC(=N)N)NC(=O)[C@H](CCCNC(=N)N)NC(=O)[C@H](CCCNC(=N)N)NC(=O)[C@H](CCC(N)=O)NC(=O)[C@H](CCCNC(=N)N)NC(=O)[C@H](CCCNC(=N)N)NC(=O)[C@H](CCCCN)NC(=O)[C@H](CCCCN)NC(=O)[C@H](CCCNC(=N)N)NC(=O)CNC(=O)[C@@H](N)Cc1ccc(O)cc1)C(=O)NCC(=O)N[C@@H](CC(N)=O)C(=O)N[C@H](C(=O)N[C@H](C(=O)N[C@@H](CCC(=O)O)C(=O)N[C@@H](C)C(=O)N[C@@H](CC(C)C)C(=O)N[C@@H](Cc1ccccc1)C(=O)N[C@@H](CCC(N)=O)C(=O)O)[C@@H](C)CC)[C@@H](C)O [RQ]
Table 15 (third cell line of Example 9), RQ 0.073242 μM
  Viability of 293T cells: 100.4267% and 97.87%
Table 15, RQ 0.146484 μM
  Viability of 293T cells: 100.8922% and 100.9503%
Table 15, RQ 0.292969 μM
  Viability of 293T cells: 102.4631% and 100.8922%
Table 15, RQ 0.585938 μM
  Viability of 293T cells: 102.8123% and 101.6486%
Table 15, RQ 1.171875 μM
  Viability of 293T cells: 115.4383% and 103.5687%
Table 15, RQ 2.34375 μM
  Viability of 293T cells: 100.3685% and 102.8704%
Table 15, RQ 4.6875 μM
  Viability of 293T cells: 99.96% and 100.0776%
Table 15, RQ 9.375 μM
  Viability of 293T cells: 99.96% and 94.03%
Table 15, RQ 18.75 μM
  Viability of 293T cells: 99.9%
Table 15, RQ 37.5 μM
  Viability of 293T cells: 101.1249% and 102.9286%
Table 15, RQ 75 μM
  Viability of 293T cells: 98.97% and 99.5%
Table 15, RQ 150 μM
  Viability of 293T cells: 63.83% and 64.4104%
